Test results published in PubChem BioAssay AID330 (DTP/NCI, 2004).
Values joined by “and” are separate entries in the source; they are usually repeats but may differ in a detail not shown here. Equal values may be shown once. Toxic doses and inconclusive results are not listed.

System: P388 leukemia ip, CD2F1 mice, survival T/C
Assay: NCI In Vivo Anticancer Drug Screen. Data for tumor model P388 Leukemia (intraperitoneal) in CD2F1 (CDF1) mice
Conditions: endpoint: median survival time, higher = longer survival
Outline: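 Mice carrying the transplanted tumor received test compound or vehicle. Survival was recorded in each group, and the value is the treated-group measurement divided by that of the vehicle-treated control group.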

[1] = dose: 25.0 mg/kg/injection, schedule: Q01DX009 (ip), vehicle: saline
[2] = dose: 50.0 mg/kg/injection, schedule: Q01DX009 (ip), vehicle: saline
[3] = dose: 100.0 mg/kg/injection, schedule: Q01DX009 (ip), vehicle: Klucel (hydroxypropylcellulose) (HPC)
[4] = dose: 60.0 mg/kg/injection, schedule: Q01DX005 (ip), vehicle: saline with Tween-80
[5] = dose: 120.0 mg/kg/injection, schedule: Q01DX005 (ip), vehicle: saline with Tween-80
[6] = dose: 240.0 mg/kg/injection, schedule: Q01DX005 (ip), vehicle: saline with Tween-80
[7] = dose: 50.0 mg/kg/injection, schedule: Q01DX005 (ip), vehicle: Klucel (hydroxypropylcellulose) (HPC)
[8] = dose: 100.0 mg/kg/injection, schedule: Q01DX005 (ip), vehicle: Klucel (hydroxypropylcellulose) (HPC)
[9] = dose: 200.0 mg/kg/injection, schedule: Q01DX005 (ip), vehicle: Klucel (hydroxypropylcellulose) (HPC)
[10] = dose: 50.0 mg/kg/injection, schedule: Q01DX005 (ip), vehicle: saline with Tween-80
[11] = dose: 100.0 mg/kg/injection, schedule: Q01DX005 (ip), vehicle: saline with Tween-80
[12] = dose: 100.0 mg/kg/injection, schedule: Q01DX009 (ip), vehicle: saline with Tween-80
[13] = dose: 200.0 mg/kg/injection, schedule: Q01DX009 (ip), vehicle: saline with Tween-80

## CN1ON(c2ccc(Cl)c(Cl)c2)OC1=O
dose: 12.5 mg/kg/injection, schedule: Q01DX009 (ip), vehicle: saline
  T/C: 103 % of control
[1]
  T/C: 105 % of control
[2]
  T/C: 104 % of control and 109 % of control

## C=C1C(=O)OC2/C=C(\CO)C(OC(C)=O)CC(O)/C(C)=C/C(OC(=O)C(C)CC)C12 (centres undefined)
dose: 6.25 mg/kg/injection, schedule: Q01DX009 (ip), vehicle: Klucel (hydroxypropylcellulose) (HPC)
  T/C: 111 % of control
dose: 12.5 mg/kg/injection, schedule: Q01DX009 (ip), vehicle: Klucel (hydroxypropylcellulose) (HPC)
  T/C: 119 % of control
[3]
  T/C: 121 % of control

## NC(=O)C1CCCN1C(=O)C1CCCN(Cc2cc(CN3CCCC(C(=O)N4CCCC4C(N)=O)C3)cc(CN3CCCC(C(=O)N4CCCC4C(N)=O)C3)c2)C1 (centres undefined)
dose: 60.0 mg/kg/injection, schedule: Q01DX005 (ip), vehicle: saline
  T/C: 104 % of control
dose: 120.0 mg/kg/injection, schedule: Q01DX005 (ip), vehicle: saline
  T/C: 98 % of control
dose: 240.0 mg/kg/injection, schedule: Q01DX005 (ip), vehicle: saline
  T/C: 95 % of control

## NNC(=O)c1nnc(N)o1
[4]
  T/C: 106 % of control
[5]
  T/C: 106 % of control
[6]
  T/C: 95 % of control

## CNC(=S)N/N=C(\C)c1ccccn1
dose: 12.5 mg/kg/injection, schedule: Q01DX009 (ip), vehicle: saline with Tween-80
  T/C: 107 % of control and 117 % of control
dose: 25.0 mg/kg/injection, schedule: Q01DX009 (ip), vehicle: saline with Tween-80
  T/C: 116 % of control

## C[C@]12CC[C@@H]3c4ccc(O)cc4CC[C@H]3[C@@H]1CC[C@@H]2NCCCCCCO
[7]
  T/C: 92 % of control
[8]
  T/C: 97 % of control

## O=C(O)CBr
dose: 25.0 mg/kg/injection, schedule: Q01DX005 (ip), vehicle: other
  T/C: 110 % of control

## Cc1c2ccccc2cc2c1ccc1ccccc12
dose: 17.5 mg/kg/injection, schedule: Q01DX009 (ip), vehicle: saline with Tween-80
  T/C: 116 % of control
dose: 25.0 mg/kg/injection, schedule: Q04DX003 (ip), vehicle: other
  T/C: 100 % of control
dose: 35.0 mg/kg/injection, schedule: Q01DX009 (ip), vehicle: saline with Tween-80
  T/C: 122 % of control
dose: 50.0 mg/kg/injection, schedule: Q04DX003 (ip), vehicle: other
  T/C: 100 % of control
dose: 70.0 mg/kg/injection, schedule: Q01DX009 (ip), vehicle: saline with Tween-80
  T/C: 152 % of control
dose: 100.0 mg/kg/injection, schedule: Q04DX003 (ip), vehicle: other
  T/C: 102 % of control
dose: 200.0 mg/kg/injection, schedule: Q04DX003 (ip), vehicle: other
  T/C: 102 % of control
dose: 400.0 mg/kg/injection, schedule: Q04DX003 (ip), vehicle: other
  T/C: 107 % of control

## CC1(C)CC(N2CCOCC2)=CC(=S)N1
[7]
  T/C: 100 % of control
[8]
  T/C: 103 % of control
[9]
  T/C: 98 % of control

## O=C(Nc1cccc(NC(=O)Nc2cc(C(F)(F)F)ccc2Cl)c1)Nc1cc(C(F)(F)F)ccc1Cl
dose: 60.0 mg/kg/injection, schedule: Q01DX005 (ip), vehicle: Klucel (hydroxypropylcellulose) (HPC)
  T/C: 89 % of control
dose: 120.0 mg/kg/injection, schedule: Q01DX005 (ip), vehicle: Klucel (hydroxypropylcellulose) (HPC)
  T/C: 91 % of control
dose: 240.0 mg/kg/injection, schedule: Q01DX005 (ip), vehicle: Klucel (hydroxypropylcellulose) (HPC)
  T/C: 100 % of control

## COCC1(COC)CCN(C2CC(O[C@H]3C[C@](O)(C(C)=O)Cc4c(O)c5c(c(O)c43)C(=O)c3c(OC)cccc3C5=O)OC(C)C2O)CC1 (some centres undefined)
dose: 1.56 mg/kg/injection, schedule: Q04DX003 (ip), vehicle: water
  T/C: 103 % of control
dose: 3.12 mg/kg/injection, schedule: Q04DX003 (ip), vehicle: water
  T/C: 110 % of control and 113 % of control
dose: 12.5 mg/kg/injection, schedule: Q04DX003 (ip), vehicle: water
  T/C: 183 % of control and 212 % of control
dose: 25.0 mg/kg/injection, schedule: Q04DX003 (ip), vehicle: water
  T/C: 152 % of control

## O=C(O)C(O)C(O)C1[O][Sb][O]C1CO (centres undefined)
[10]
  T/C: 98 % of control
[11]
  T/C: 96 % of control
dose: 200.0 mg/kg/injection, schedule: Q01DX005 (ip), vehicle: saline with Tween-80
  T/C: 96 % of control

## CC(C)(C)OC(=O)NCC(=O)NNC(=O)OC(C)(C)C
dose: 100.0 mg/kg/injection, schedule: Q01DX009 (ip), vehicle: saline
  T/C: 118 % of control
dose: 200.0 mg/kg/injection, schedule: Q01DX009 (ip), vehicle: saline
  T/C: 118 % of control
dose: 400.0 mg/kg/injection, schedule: Q01DX009 (ip), vehicle: saline
  T/C: 118 % of control

## O=S(=O)(Nc1cc2ccccc2cc1NS(=O)(=O)N1CCCCC1)N1CCCCC1
dose: 50.0 mg/kg/injection, schedule: Q01DX009 (ip), vehicle: Klucel (hydroxypropylcellulose) (HPC)
  T/C: 93 % of control
[3]
  T/C: 89 % of control

## CC(CC(=O)O)(CC(=O)O)CC(=O)O
dose: 50.0 mg/kg/injection, schedule: Q01DX009 (ip), vehicle: saline with Tween-80
  T/C: 110 % of control
[12]
  T/C: 101 % of control
[13]
  T/C: 97 % of control

## CCCCN(CC)CCCCCCCCCCN1CCCc2cc(OC)ccc21
dose: 12.5 mg/kg/injection, schedule: Q01DX005 (ip), vehicle: saline with Tween-80
  T/C: 101 % of control
dose: 25.0 mg/kg/injection, schedule: Q01DX005 (ip), vehicle: saline with Tween-80
  T/C: 111 % of control
[10]
  T/C: 115 % of control
[11]
  T/C: 107 % of control

## CC(N)C(=O)OCN1C(=O)C2C3C=CC(C2C1=O)C1C(=O)N(COC(=O)C(C)N)C(=O)C31 (centres undefined)
dose: 25.0 mg/kg/injection, schedule: Q01DX009 (ip), vehicle: water
  T/C: 100 % of control
dose: 50.0 mg/kg/injection, schedule: Q01DX009 (ip), vehicle: water
  T/C: 100 % of control
dose: 100.0 mg/kg/injection, schedule: Q01DX009 (ip), vehicle: water
  T/C: 112 % of control
dose: 200.0 mg/kg/injection, schedule: Q01DX009 (ip), vehicle: water
  T/C: 121 % of control

## COc1c2occc2c(N=Cc2ccccn2)c2ccc(=O)oc12
dose: 6.25 mg/kg/injection, schedule: Q01DX005 (ip), vehicle: Klucel (hydroxypropylcellulose) (HPC)
  T/C: 97 % of control
dose: 12.5 mg/kg/injection, schedule: Q01DX005 (ip), vehicle: Klucel (hydroxypropylcellulose) (HPC)
  T/C: 97 % of control
dose: 25.0 mg/kg/injection, schedule: Q01DX005 (ip), vehicle: Klucel (hydroxypropylcellulose) (HPC)
  T/C: 95 % of control
[7]
  T/C: 90 % of control

## O=[N+]([O-])c1ccc(/C=[N+](\[O-])CCO)cc1
[12]
  T/C: 99 % of control
[13]
  T/C: 92 % of control

## CCCCOC(=O)NC(=O)c1cc2cc(I)cc(I)c2oc1=O
[4]
  T/C: 91 % of control
[5]
  T/C: 94 % of control
[6]
  T/C: 94 % of control

## O=C1C2CC3OC3CC2C(=O)N1CCCCCCN1C(=O)C2CC3OC3CC2C1=O (centres undefined)
[7]
  T/C: 91 % of control
[8]
  T/C: 90 % of control
[9]
  T/C: 89 % of control

## O=C(NCCCl)Oc1cccn(C(=O)NCCCl)c1=O
dose: 12.5 mg/kg/injection, schedule: Q01DX009 (sc), vehicle: saline with Tween-80
  T/C: 106 % of control and 111 % of control
[1]
  T/C: 111 % of control and 113 % of control
dose: 25.0 mg/kg/injection, schedule: Q01DX009 (sc), vehicle: saline with Tween-80
  T/C: 100 % of control and 115 % of control
[2]
  T/C: 112 % of control and 118 % of control
dose: 50.0 mg/kg/injection, schedule: Q01DX009 (sc), vehicle: saline with Tween-80
  T/C: 102 % of control and 115 % of control
dose: 100.0 mg/kg/injection, schedule: Q01DX009 (sc), vehicle: saline with Tween-80
  T/C: 109 % of control and 115 % of control
dose: 200.0 mg/kg/injection, schedule: Q01DX009 (sc), vehicle: saline with Tween-80
  T/C: 111 % of control and 123 % of control
dose: 400.0 mg/kg/injection, schedule: Q01DX009 (sc), vehicle: saline with Tween-80
  T/C: 95 % of control
